Results as given in patent US10946074B2, “GLP-1 derivatives and uses thereof” (Novo Nordisk A/S, priority 2016, dated 2021).
Starred links: 1 amine or outer side, 2 acyl side, 3 side chain; linkers in the order of their positions; H or OH if unused. Residues, ends and D or L forms follow the SMILES beside them. Groups on a side chain read outwards from the residue. *: point of attachment. Undecanoyl(11-OPh(4-COOH)) = O=C(O)c1ccc(OCCCCCCCCCCC(=O)*)cc1; Decanoyl(10-O(3-COOH-Ph)) = O=C(O)c1cccc(OCCCCCCCCCC(=O)*)c1; γGlu = O=C(O)[C@H](CCC(=O)[*:2])N[*:1]; AEEA = NCCOCCOCC(=O)O

Molecular target: T1, human GLP-1 receptor (Homo sapiens, UniProt P43220)
T1 construct: expressed in transfected cells; host or cells: membranes of BHK cells (parent BHKTS13), clone FCW467-12A
T1 sequence (P43220 24-463): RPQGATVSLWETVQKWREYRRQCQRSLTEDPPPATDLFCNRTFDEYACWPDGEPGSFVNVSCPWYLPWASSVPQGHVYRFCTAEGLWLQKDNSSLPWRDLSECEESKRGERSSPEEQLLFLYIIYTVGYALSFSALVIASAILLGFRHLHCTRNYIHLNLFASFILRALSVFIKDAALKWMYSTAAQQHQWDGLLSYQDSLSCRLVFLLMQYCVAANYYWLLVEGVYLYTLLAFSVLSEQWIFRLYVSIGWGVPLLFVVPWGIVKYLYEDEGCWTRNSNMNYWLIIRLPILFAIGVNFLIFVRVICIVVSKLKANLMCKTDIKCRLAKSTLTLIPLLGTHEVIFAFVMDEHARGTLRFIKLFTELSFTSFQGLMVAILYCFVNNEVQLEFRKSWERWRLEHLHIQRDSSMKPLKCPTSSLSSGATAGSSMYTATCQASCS
Test: GLP-1 receptor binding, competitive binding assay with 125I-GLP-1 on isolated membranes (SPA)

[1] = GLP-1 receptor binding High HSA IC50 (nM), high HSA (2.0% (w/v) final assay concentration)
[2] = GLP-1 receptor binding Low HSA IC50 (nM), low HSA (max. 0.001% (w/v) final assay concentration)

Experimental: The receptor binding is reported as the concentration at which half of the labelled ligand is displaced from the receptor, the IC50 value.
Buffer 1 consisted of 20 mM Na-HEPES plus 10 mM EDTA and pH was adjusted to 7.4. Buffer 2 consisted of 20 mM Na-HEPES plus 0.1 mM EDTA and pH was adjusted to 7.4. Assay buffer consisted of 50 mM HEPES supplemented with 5 mM EGTA, 5 mM MgCl2, 0.005% w/v Tween 20 and pH was adjusted to 7.4. An 8% albumin stock consisted of HSA dissolved at 8% (w/v) in assay buffer. An 0.02% albumin stock consisted of HSA dissolved at 0.02% (w/v) in assay buffer.
To make a membrane preparation the cells were grown to approximately 80% confluence. The cells were washed twice in phosphate-buffered saline and harvested. The cells were pelleted using a brief centrifugation and the cell pellet was kept on ice. The cell pellet was homogenised with ULTRA-THURRAX™ dispersing instrument for 20-30 seconds in a suitable amount of buffer 1 (e.g., 10 ml). The homogenate was centrifuged for 15 minutes. The pellet was re-suspended (homogenised) in 10 ml buffer 2 and centrifuged. This step was repeated once more. The resulting pellet was re-suspended in buffer 2 and the protein concentration was determined. The membranes were aliquoted and stored at minus 80° C.
For the receptor binding assay in the presence of low HSA (0.005% (w/v)) 50 μl of the assay buffer was added to each well of an assay plate. Assay continued with step 3.
For the receptor binding assay in the presence of high HSA (2% (w/v)) 50 μl of the 8% (w/v) albumin stock was added to each well of an assay plate. Assay continued with step 3.
Cell membrane aliquots were thawed and diluted to their working concentration. Fifty μl were added to each well in the assay plate.
WGA SPA beads were suspended in assay buffer at 20 mg/ml. The suspension was diluted to 10 mg/ml in assay buffer just prior to addition to the assay plate. Fifty μl were added to each well in the assay plate.
A 25 μl aliquot was reserved for measuring total counts/well.
The assay plate was incubated for 2 h at 30° C.
The assay plate was centrifuged for 10 min.
The assay plate was read in a Packard TopCount NXT instrument.
Individual replicates were analysed using non-linear regression in GraphPad Prism. IC50 values were calculated by the software and reported in nM. A minimum of two replicates was measured for each sample. The reported values are averages of all of the measured values for each compound.

`CC[C@H](C)[C@H](NC(=O)[C@H](Cc1ccccc1)NC(=O)[C@H](CCC(=O)O)NC(=O)[C@H](CCCNC(=N)N)NC(=O)[C@H](C)NC(=O)[C@H](C)NC(=O)[C@H](CCC(N)=O)NC(=O)[C@H](CCC(=O)O)NC(=O)[C@H](CCC(=O)O)NC(=O)[C@H](CC(C)C)NC(=O)[C@H](Cc1ccc(O)cc1)NC(=O)[C@H](CO)NC(=O)[C@H](CO)NC(=O)[C@@H](NC(=O)[C@H](CC(=O)O)NC(=O)[C@H](CO)NC(=O)[C@@H](NC(=O)[C@H](Cc1ccccc1)NC(=O)[C@@H](NC(=O)CNC(=O)[C@H](CCC(=O)O)NC(=O)C(C)(C)NC(=O)[C@@H](N)Cc1c[nH]cn1)[C@@H](C)O)[C@@H](C)O)C(C)C)C(=O)N[C@@H](C)C(=O)N[C@@H](Cc1c[nH]c2ccccc12)C(=O)N[C@@H](CC(C)C)C(=O)N[C@H](C(=O)N[C@@H](CCCNC(=N)N)C(=O)NCC(=O)N[C@@H](CCCCNC(=O)COCCOCCNC(=O)COCCOCCNC(=O)CC[C@H](NC(=O)CCCCCCCCCCOc1ccc(C(=O)O)cc1)C(=O)O)C(=O)N[C@@H](CCCCNC(=O)COCCOCCNC(=O)COCCOCCNC(=O)CC[C@H](NC(=O)CCCCCCCCCCOc1ccc(C(=O)O)cc1)C(=O)O)C(=O)O)C(C)C` [Comparative 8A] gave an IC50 [1] of 110 nM and an IC50 [2] of 0.245 nM.
For `CC[C@H](C)[C@H](NC(=O)[C@H](Cc1ccccc1)NC(=O)[C@H](CCC(=O)O)NC(=O)[C@H](CCCNC(=N)N)NC(=O)[C@H](C)NC(=O)[C@H](C)NC(=O)[C@H](CCC(N)=O)NC(=O)[C@H](CCC(=O)O)NC(=O)[C@H](CCC(=O)O)NC(=O)[C@H](CC(C)C)NC(=O)[C@H](Cc1ccc(O)cc1)NC(=O)[C@H](CO)NC(=O)[C@H](CO)NC(=O)[C@@H](NC(=O)[C@H](CC(=O)O)NC(=O)[C@H](CO)NC(=O)[C@@H](NC(=O)[C@H](Cc1ccccc1)NC(=O)[C@@H](NC(=O)CNC(=O)[C@H](CCC(=O)O)NC(=O)[C@H](Cc1c[nH]c2ccccc12)NC(=O)[C@@H](N)Cc1c[nH]cn1)[C@@H](C)O)[C@@H](C)O)C(C)C)C(=O)N[C@@H](C)C(=O)N[C@@H](Cc1c[nH]c2ccccc12)C(=O)N[C@@H](CC(C)C)C(=O)N[C@H](C(=O)N[C@@H](CCCNC(=N)N)C(=O)NCC(=O)N[C@@H](CCCCNC(=O)COCCOCCNC(=O)COCCOCCNC(=O)CC[C@H](NC(=O)CCCCCCCCCOc1cccc(C(=O)O)c1)C(=O)O)C(=O)N[C@@H](CCCCNC(=O)COCCOCCNC(=O)COCCOCCNC(=O)CC[C@H](NC(=O)CCCCCCCCCOc1cccc(C(=O)O)c1)C(=O)O)C(=O)O)C(C)C` [Example 1, N{Epsilon-36}-[2-[2-[2-[[2-[2-[2-[[(4S)-4-carboxy-4-[10-(3-carboxyphenoxy)decanoylamino]butanoyl]amino]ethoxy]ethoxy]acetyl]amino]ethoxy]ethoxy]acetyl],N{Epsilon-37}-[2-[2-[2-[[2-[2-[2-[[(4S)-4-carboxy-4-[10-(3-carboxyphenoxy)decanoylamino]butanoyl]amino]ethoxy]ethoxy]acetyl]amino]ethoxy]ethoxy]acetyl]-[Trp8,Glu22,Arg26,Arg34,Lys36,Lys37]-GLP-1-(7-37)-peptide] (H-HWEGTFTSDVSSYLEEQAAREFIAWLVRGK([AEEA-AEEA-γGlu-Decanoyl(10-O(3-COOH-Ph))])K([AEEA-AEEA-γGlu-Decanoyl(10-O(3-COOH-Ph))])-OH), the IC50 [1] was 410 nM.
With `CC[C@H](C)[C@H](NC(=O)[C@H](Cc1ccccc1)NC(=O)[C@H](CCC(=O)O)NC(=O)[C@H](CCCNC(=N)N)NC(=O)[C@H](C)NC(=O)[C@H](C)NC(=O)[C@H](CCC(N)=O)NC(=O)[C@H](CCC(=O)O)NC(=O)[C@H](CCC(=O)O)NC(=O)[C@H](CC(C)C)NC(=O)[C@H](Cc1ccc(O)cc1)NC(=O)[C@H](CO)NC(=O)[C@H](CO)NC(=O)[C@@H](NC(=O)[C@H](CC(=O)O)NC(=O)[C@H](CO)NC(=O)[C@@H](NC(=O)[C@H](Cc1ccccc1)NC(=O)[C@@H](NC(=O)CNC(=O)[C@H](CCC(=O)O)NC(=O)[C@H](Cc1c[nH]c2ccccc12)NC(=O)[C@@H](N)Cc1c[nH]cn1)[C@@H](C)O)[C@@H](C)O)C(C)C)C(=O)N[C@@H](C)C(=O)N[C@@H](Cc1c[nH]c2ccccc12)C(=O)N[C@@H](CC(C)C)C(=O)N[C@H](C(=O)N[C@@H](CCCNC(=N)N)C(=O)NCC(=O)N[C@@H](CCCCNC(=O)COCCOCCNC(=O)COCCOCCNC(=O)CC[C@H](NC(=O)CCCCCCCCCCOc1ccc(C(=O)O)cc1)C(=O)O)C(=O)N[C@@H](CCCCNC(=O)COCCOCCNC(=O)COCCOCCNC(=O)CC[C@H](NC(=O)CCCCCCCCCCOc1ccc(C(=O)O)cc1)C(=O)O)C(=O)O)C(C)C` [Example 8, N{Epsilon-36}-[2-[2-[2-[[2-[2-[2-[[(4S)-4-carboxy-4-[11-(4-carboxyphenoxy)undecanoylamino]butanoyl]amino]ethoxy]ethoxy]acetyl]amino]ethoxy]ethoxy]acetyl],N{Epsilon-37}-[2-[2-[2-[[2-[2-[2-[[(4S)-4-carboxy-4-[11-(4-carboxyphenoxy)undecanoylamino]butanoyl]amino]ethoxy]ethoxy]acetyl]amino]ethoxy]ethoxy]acetyl]-[Trp8,Glu22,Arg26,Arg34,Lys36,Lys37]-GLP-1-(7-37)-peptide] (H-HWEGTFTSDVSSYLEEQAAREFIAWLVRGK([AEEA-AEEA-γGlu-Undecanoyl(11-OPh(4-COOH))])K([AEEA-AEEA-γGlu-Undecanoyl(11-OPh(4-COOH))])-OH; N-terminus and C-terminus assumed) the IC50 [1] was 170 nM.
In the case of `CC[C@H](C)[C@H](NC(=O)[C@H](Cc1ccccc1)NC(=O)[C@H](CCC(=O)O)NC(=O)[C@H](CCCNC(=N)N)NC(=O)[C@H](C)NC(=O)[C@H](C)NC(=O)[C@H](CCC(N)=O)NC(=O)[C@H](CCC(=O)O)NC(=O)[C@H](CCC(=O)O)NC(=O)[C@H](CC(C)C)NC(=O)[C@H](Cc1ccc(O)cc1)NC(=O)[C@H](CO)NC(=O)[C@H](CO)NC(=O)[C@@H](NC(=O)[C@H](CC(=O)O)NC(=O)[C@H](CO)NC(=O)[C@@H](NC(=O)[C@H](Cc1ccccc1)NC(=O)[C@@H](NC(=O)CNC(=O)[C@H](CCC(=O)O)NC(=O)[C@H](Cc1c[nH]c2ccccc12)NC(=O)[C@@H](N)Cc1c[nH]cn1)[C@@H](C)O)[C@@H](C)O)C(C)C)C(=O)N[C@@H](C)C(=O)N[C@@H](Cc1c[nH]c2ccccc12)C(=O)N[C@@H](CC(C)C)C(=O)N[C@H](C(=O)N[C@@H](CCCNC(=N)N)C(=O)NCC(=O)N[C@@H](CCCNC(=N)N)C(=O)N[C@@H](CCCCNC(=O)COCCOCCNC(=O)COCCOCCNC(=O)[C@H](CCCCNC(=O)COCCOCCNC(=O)COCCOCCNC(=O)COCCOCCNC(=O)COCCOCCNC(=O)CC[C@H](NC(=O)[C@H]1CC[C@H](CNC(=O)CCCCCCCCCCCCCCCCCCC(=O)O)CC1)C(=O)O)NC(=O)COCCOCCNC(=O)COCCOCCNC(=O)COCCOCCNC(=O)COCCOCCNC(=O)CC[C@H](NC(=O)[C@H]1CC[C@H](CNC(=O)CCCCCCCCCCCCCCCCCCC(=O)O)CC1)C(=O)O)C(=O)O)C(C)C` [Example 12], the IC50 [2] was 3.16 nM.
